In patent US6683103B2, “Sulfonamides for treatment of endothelin-mediated disorders” (Texas Biotechnology Corporation, priority 1997, dated 2004):
Read-outs that look alike come from different tables or passages of the source. Marks after values point to notes of the source that are not given here.

Legend:
human ETA receptors = target: T1, human ETA receptors (Homo sapiens, UniProt P25101); assay: Binding Test #1: inhibition of 125I-ET-1 binding to ETA receptors (TE 671 cell membranes); details: Table 3
T1 construct: endogenous in cells; host or cells: TE 671 cells (ATCC HTB 139)
T1 sequence (P25101 21-427): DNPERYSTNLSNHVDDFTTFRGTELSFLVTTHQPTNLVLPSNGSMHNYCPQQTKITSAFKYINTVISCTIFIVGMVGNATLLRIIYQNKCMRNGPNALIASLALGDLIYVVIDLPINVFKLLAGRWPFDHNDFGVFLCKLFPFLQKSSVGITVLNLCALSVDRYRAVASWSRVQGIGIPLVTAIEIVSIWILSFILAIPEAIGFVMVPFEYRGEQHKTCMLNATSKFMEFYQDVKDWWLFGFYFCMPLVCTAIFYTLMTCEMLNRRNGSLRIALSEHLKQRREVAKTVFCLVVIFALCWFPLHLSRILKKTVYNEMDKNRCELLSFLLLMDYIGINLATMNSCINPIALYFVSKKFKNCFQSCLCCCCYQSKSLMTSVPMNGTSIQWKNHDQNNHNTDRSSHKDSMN
Outline: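 Membranes from TE 671 cells (up to 8 μg protein) incubated with ¹²⁵I-ET-1 and compound (1 nM–100 μM final) in 30 mM HEPES pH 7.4, 150 mM NaCl, 5 mM MgCl2, 0.5% bacitracin, 16–18 h at 4 °C or alternatively at 24 °C. Nonspecific binding with 80 nM ET-1; bound pellet gamma-counted, % inhibition calculated, usually triplicate.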

[1] = system: Pulmonary Hypertension model; assay: Pulmonary hypertension model, in vivo efficacy; set-up: species or system rat; key to in vivo Efficacy: ++ effective at 5 mg/kg; − no effect at 5 mg/kg; + effective at 15 mg/kg
Description: As used herein, efficacy refers to the maximal effect that can be produced by a compound. Efficacy can be determined by methods known to those of skill in the art. For example, it can be determined by the properties of the compound and its receptor-effector system and is reflected in the plateau of the concentration-effect curve. In vivo efficacy refers to efficacy which is determined in an animal model. For example, in vivo efficacy of the compounds described herein can be determined by amelioration of hypoxia-induced pulmonary hypertension in rat. In this context, in vivo efficacy refers to the ability of a compound to restore an elevated pulmonary artery pressure to a normal value. […] J. Physiol. […] The in vivo activity was measured in a pulmonary hypertension model and is a measure of the activity of the compounds at selected dosages.

Papp (Table 4) = assay type: in vitro ADME
[2] = Oral half-life and peak plasma levels in rat; assay type: in vivo
Excerpt: As used herein, bioavailability refers to the rate and extent of absorption. Methods for determining bioavailability are well known to those of skill in the art. For example, bioavailability of any of the compounds described herein can be determined empirically by administration of the compound to an animal, followed by taking blood samples over time and measuring the blood concentration of the compound. In vivo half life (t½) is defined as the time it takes for the concentration of the compound in the blood to be reduced by one-half. Estimations of the area under the curve for intravenous administration can be used to estimate the area under the curve for oral administration, yielding bioavailability data. See, e.q., Milo Gibal (1991) Biopharmaceutics and Pharmacology, 4th edition (Lea and Sediger).
Table 4 lists oral half-life, bioavailability, and in vivo activity of selected exemplary compounds. The in vivo activity was measured in a pulmonary hypertension model and is a measure of the activity of the compounds at selected dosages.

[3] = Solubility in aqueous media
[4] = Stability of solutions, percent remaining by HPLC; assay type: physicochemical
ETB receptors = details: tissues in which ETB receptors predominate; cited from earlier work
ETA receptor = details: cited from earlier work
isolated vascular strips = details: contractile agent in isolated vascular strips; cited from earlier work

CC(=O)c1cc(C)cc(C)c1NC(=O)c1sccc1S(=O)(=O)Nc1onc(C)c1Cl [N-(2-acetyl-4,6-dimethylphenyl)-3-(((4-chloro-3-methyl-5-isoxazolyl)amino)sulfonyl)-2-thiophenecarboxamide]
ETA/ETB selectivity (human ETA receptors): 34000^∥ | IC50 (human ETA receptors; † incubation at 24° C., read-out: ETA): 0.00055 µM | in vivo Efficacy (footnote e) ([1]; 0.3 mg/kg in vivo): ^eeffective at 0.3 mg/kg in vivo | in vivo Efficacy ([1]; Pulmonary Hypertension model): ++^e | Papp (cell printed as %) (Papp (Table 4)): 40% | Peak Plasma Levels ([2]; in vivo): 57 µg/mL | POt½ in Rat ([2]; oral): 8.6 h

Cc1cc2c(cc1CC(=O)c1sccc1S(=O)(=O)Nc1onc(C)c1Cl)OCO2.[Na] [sodium]
solubility compared to the neutral compound [3]: improved solubility over the neutral compound | percent remaining (HPLC) ([4]; 0.49 mg/mL, 1.5% PVP + 3.0% PG, 24 h): 90.0% | percent remaining (HPLC) ([4]; 0.51 mg/mL, 5% dextrose, 24 h): 99.4% | percent remaining (HPLC) ([4]; 0.51 mg/mL, normal saline, 24 h): 96.9% | percent remaining (HPLC) ([4]; 0.57 mg/mL, 0.75% PVP + 1.5% PG, 24 h): 74.4% | percent remaining (HPLC) ([4]; 20 mg/mL, 5% dextrose + 5% PG + citrate buffer, 0.3% w/v (pH 7.5), 26 h (4° C.)): 97.2% | percent remaining (HPLC) ([4]; 20 mg/mL, 5% dextrose + 5% buffer (pH 7.0), 24 h): 92.6% | percent remaining (HPLC) ([4]; 20 mg/mL, 5% dextrose + K-phosphate buffer, 2.5% w/v (pH 6), 24 h): 84.6% | percent remaining (HPLC) ([4]; 20 mg/mL, 5% dextrose + K-phosphate buffer, 2.5% w/v (pH 7), 20 h): 92.6% | percent remaining (HPLC) ([4]; 20 mg/mL, 5% dextrose + K-phosphate buffer, 2.5% w/v (pH 7.5), 24 h): 93.4% | percent remaining (HPLC) ([4]; 20 mg/mL, 5% dextrose + citrate buffer, 0.3% w/v (pH 7.5), 27 h (4° C.)): 96.6% | percent remaining (HPLC) ([4]; 20 mg/mL, 5% dextrose + citrate buffer, 0.3% w/v (pH 8), 21 h): 92.9% | percent remaining (HPLC) ([4]; 20 mg/mL, 5% dextrose, 24 h (13° C.)): 93.7% | percent remaining (HPLC) ([4]; 20 mg/mL, 5% dextrose, 25 h (10° C.)): 93.7% | percent remaining (HPLC) ([4]; 20 mg/mL, 10% dextrose + 10% PG + Na-phosphate buffer, 0.3% w/v (pH 7.5), 24 h): 90.7% | percent remaining (HPLC) ([4]; 20 mg/mL, 10% dextrose, 24 h): 93.4% | percent remaining (HPLC) ([4]; 30 mg/mL, 5% dextrose, 24 h): 92.2% | percent remaining (HPLC) ([4]; 30 mg/mL, 10% dextrose + 10% PG + citrate buffer, 0.3% w/v (pH 7.5), 24 h (4° C.)): 98.0% | percent remaining (HPLC) ([4]; 30 mg/mL, 20% sorbitol, 24 h): 93.2% | percent remaining (HPLC) ([4]; 100 mg/mL, 5% dextrose, 6 h): 93.0% | percent remaining (HPLC) ([4]; 100 mg/mL, 10% dextrose +10% PG + citrate buffer, 0.3% w/v (pH 7.5), 24 h): 94.2% | percent remaining (HPLC) ([4]; 100 mg/mL, 30% sorbitol, 24 h): 93.2% | stability compared to the sodium hydrogen phosphate salt ([4]; certain aqueous formulations): as stable as the sodium hydrogen phosphate salt | percent remaining (HPLC) ([4]; mg/mL not given, 10% dextrose + 10% PG + Na-phosphate buffer, 0.3% w/v (pH 7.5), 24 h (4° C.)): 97.4% | percent remaining (HPLC) ([4]; mg/mL not given, 10% dextrose + 10% PG + Na-phosphate buffer, 0.3% w/v (pH 8), 24 h (4° C.)): 96.4% | percent remaining (HPLC) ([4]; mg/mL not given, 10% dextrose + 10% PG + citrate buffer, 0.3% w/v (pH 7.4), 24 h (4° C.)): 97.6% | percent remaining (HPLC) ([4]; mg/mL not given, 10% dextrose + 10% PG, 24 h (4° C.)): 97.6%

cyclo(D-Glu-L-Ala-allo-D-lle-L-Leu-D-Trp) [BE-18257B]
concentration up to which binding is not inhibited (ETB receptors): > 100 µM | IC50 (ETA receptor; aortic smooth muscle): 1.4 µM | IC50 (ETA receptor; cultured aortic smooth muscle cells): 0.5 µM | IC50 (ETA receptor; ventricle membranes): 0.8 µM

endothelin-1: potent twenty-one amino acid peptide vasoconstrictor
EC50 (isolated vascular strips): 0.0004 µM
